Each compound was assayed against Tryptophan--tRNA ligase (Mycobacterium tuberculosis (strain ATCC 25618 / H37Rv), UniProt P9WFT3) (assay: Biochemical assay for Mt-TrpRS).
Type: functional

Tryptophan--tRNA ligase, sequence (P9WFT3 whole entry): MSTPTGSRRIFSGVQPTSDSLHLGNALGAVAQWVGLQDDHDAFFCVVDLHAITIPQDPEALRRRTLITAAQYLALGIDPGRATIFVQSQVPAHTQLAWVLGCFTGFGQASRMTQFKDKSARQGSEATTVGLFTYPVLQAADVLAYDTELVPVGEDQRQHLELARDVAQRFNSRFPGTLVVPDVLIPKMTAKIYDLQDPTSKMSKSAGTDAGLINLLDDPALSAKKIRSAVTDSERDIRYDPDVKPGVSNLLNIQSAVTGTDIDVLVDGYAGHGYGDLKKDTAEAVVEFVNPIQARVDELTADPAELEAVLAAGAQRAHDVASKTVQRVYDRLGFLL

Row | SMILES | IC50 [µM]
1 | Cn1c(=O)c2cc(C(=O)NCCc3ccccc3)ccc2n(C)c1=O | > 195
2 | CNc1cc(-c2ccncc2)ncn1 | > 195
3 | Cc1ccnc(N2CCC(C(N)=O)CC2)n1 | > 195
4 | O=c1[nH]c(-c2ccncc2)ncc1-c1ccnc(NC2CC2)n1 | > 195
5 | O=C1CN(CC2CC2)Cc2nc(NCc3ccccc3)sc21 | > 195
6 | O=C1CN(CC2CC2)Cc2nc(NCCc3ccccn3)sc21 | > 195
7 | CNc1nc2c(s1)C(=O)CN(C(=O)NCCc1ccccc1)C2 | > 195
8 | COCC(=O)N1CC(=O)c2sc(Nc3ccc(F)cc3F)nc2C1 | > 195
9 | CN(C)C(=O)N1CC[C@@H](c2ccc3ccccc3c2)[C@H](O)C1 | > 195
10 | Cc1nn(CC(=O)NCc2cc3n(n2)CCCN(CC(C)C)C3)cc1Cl | > 195
11 | O=C(NCC1=CCCCC1)C(c1cccnc1)N1CCCC1 (centres undefined) | > 195
12 | COc1cc(N(C)CCC(O)c2ccccc2)ncn1 (centres undefined) | > 195
13 | CC(C)N1CCCC2(CCN(Cc3noc(C4CCCC4)n3)C2)C1=O (centres undefined) | > 195
14 | CN1C(=O)CC(C(=O)O)C12CCN(Cc1ccc(Cl)c(F)c1)CC2 (centres undefined) | > 195
15 | COc1ccc([C@@H]2CN(C(=O)CCn3cccn3)C[C@H]2NC(C)=O)cc1 | > 195
16 | CSc1ccccc1C(=O)NCc1cc2n(n1)CCCN(CC(C)C)C2 | > 195
17 | NC(=O)C1CCN(C(C(=O)O)c2ccc(Cl)c(C(F)(F)F)c2)CC1 (centres undefined) | > 195
18 | CSc1ncc(C(=O)NCc2cc3n(n2)CCCN(CC(C)C)C3)cn1 | > 195
19 | Cc1nc(N(C)CCN(C)C)c2cnn(C)c2n1 | > 195
20 | Nc1nc2c(c(NC3CCCC3)n1)CCN(C(=O)C1CCOC1)CC2 (centres undefined) | > 195
21 | Cc1cc(C)n(NC(=O)c2ccccc2F)c(=O)c1 | > 195
22 | CCC(NC(=O)c1nn(C)cc1C(=O)O)c1ccc(C)cc1C (centres undefined) | > 195
23 | CCSc1ncc(Cl)c(C(=O)NC(CCSC)C(=O)O)n1 (centres undefined) | > 195
24 | CSCCC(NC(=O)c1nc(SC)ncc1Cl)C(=O)O (centres undefined) | > 195
25 | CSc1ncc(Cl)c(C(=O)NC(Cc2ccccc2)C(=O)O)n1 (centres undefined) | > 195
26 | COc1ccc(-c2cc(N)on2)cc1 | > 195
27 | CCn1cc(N)c(-c2nnc3n2CCC3)n1 | > 195

Row | SMILES | IC50 [µM]
28 | CCn1cc(N)c(-c2nnc3n2CCCC3)n1 | > 195
29 | Cn1ncc(NC(=O)c2noc3c2CCCC3)c1C(N)=O | > 195
30 | CCN(CC)C1COc2ccc(Br)cc2C1=O (centres undefined) | > 195
31 | Cc1c(Br)cc2c(c1C)OCC(N(C)C)C2=O (centres undefined) | > 195
32 | O=C1NC(=O)c2c3c(nc(O)c21)CCCC3 | > 195
33 | O=C1CCC(=O)N1c1nn(Cc2c(F)cccc2Cl)cc1Cl | > 195
34 | O=C1CCC(=O)N1c1nn(Cc2ccc(F)cc2)cc1Cl | > 195
35 | CNCc1cc(F)ccc1Oc1ccc(F)cc1 | > 195
36 | Cc1cn(Cc2ccc(F)c(F)c2)nc1N | > 195
37 | CC(C)c1cc(CN2CCC(N)CC2)on1 | > 195
38 | Cc1cn(Cc2ccccc2)nc1N | > 195
39 | Cc1ccc(Cn2cc(C)c(N)n2)cc1 | > 195
40 | Cc1cccc(Cn2cc(C)c(N)n2)c1 | > 195
41 | O=C1CCC(=O)N1c1nn(Cc2ccccc2)cc1Cl | > 195
42 | O=C1CCC(=O)N1c1nn(Cc2cccc(F)c2)cc1Cl | > 195
43 | CC(=O)c1ccc(OCC(C)O)cc1O (centres undefined) | > 195
44 | CCOC(=O)COc1ccc(C(C)=O)c(O)c1 | > 195
45 | Cn1c(=O)c2cc(C(=O)NCCOCC(F)(F)F)ccc2n(C)c1=O | > 195
46 | O=C(O)CCc1nc2nccc(-c3ccc(F)cc3)n2n1 | > 195
47 | O=C(O)Cc1nc2nccc(-c3ccc(F)cc3)n2n1 | > 195
48 | Cn1cc(-c2cc(C(F)(F)F)n(CCCN)n2)cn1 | > 195
49 | COc1cc(CNc2cnn(CC(F)F)c2)ccc1O | > 195
50 | CC(CC#N)n1ccc(C(F)(F)F)n1 (centres undefined) | > 195
51 | CCC(CC#N)n1ccc(C(F)(F)F)n1 (centres undefined) | > 195
52 | COc1cccc(CNc2cnn(CC(F)F)c2)c1 | > 195
53 | COc1ccc(CNc2cnn(CC(F)F)c2)cc1 | > 195
54 | COC(=O)c1ccc(CNCc2ccn(C)n2)cc1 | > 195

From ChEMBL document CHEMBL3988442, “University of Dundee, Small-Polar-MMV Screening Library” (2021)
